Among the data in patent US20080214560A1, “Use of Pyrimidine Derivatives in the Manufacture of a Medicament for Prevention and/or Treatment of Alzheimer's Disease” (AstraZeneca AB, priority 2005, published 2008) are Ki values, retold here.

The target in this assay is T1, recombinant human GSK3β (Homo sapiens, UniProt P49841).
T1 construct: purchased Dundee University, UK
Put plainly: GSK3β Scintillation Proximity Assay (ATP competition). In kind it is biochemical. The note with it: SPA, 1 μM ATP, Km of ATP 20 μM used to calculate Ki. The protocol:
Determination of ATP Competition in Scintillation Proximity GSK3β Assay.
GSK3β Scintillation Proximity Assay.
The competition experiments were carried out in duplicate with 10 different concentrations of the inhibitors in clear-bottom microtiter plates (Wallac, Finland). A biotinylated peptide substrate, Biotin-Ala-Ala-Glu-Glu-Leu-Asp-Ser-Arg-Ala-Gly-Ser(PO3H2)-Pro-Gln-Leu (AstraZeneca, Lund), was added at a final concentration of 1 μM in an assay buffer containing 1 mU recombinant human GSK3β (Dundee University, UK), 12 mM morpholinepropanesulfonic acid (MOPS), pH 7.0, 0.3 mM EDTA, 0.01% β-mercaptorethanol, 0.004% Brij 35 (a […] detergent), 0.5% glycerol and 0.5 μg BSA/25 μl. The reaction was initiated by the addition of 0.04 μCi [γ-^33P]ATP (Amersham, UK) and unlabelled ATP at a final concentration of 1 μM and assay volume of 25 μL. After incubation for 20 minutes at room temperature, each reaction was terminated by the addition of 25 μl stop solution containing 5 mM EDTA, 50 μM ATP, 0.1% Triton X-100 and 0.25 mg streptavidin coated Scintillation Proximity Assay (SPA) beads (Amersham, UK). After 6 hours the radioactivity was determined in a liquid scintillation counter (1450 MicroBeta Trilux, Wallac). The inhibition curves were analysed by non-linear regression using GraphPad Prism, USA. The Km value of ATP for GSK3β, used to calculate the inhibition constants (Ki) of the various compounds, was 20 μM.

Structures can show the parent of a compound that is named as a salt.

T1 sequence (P49841 whole entry): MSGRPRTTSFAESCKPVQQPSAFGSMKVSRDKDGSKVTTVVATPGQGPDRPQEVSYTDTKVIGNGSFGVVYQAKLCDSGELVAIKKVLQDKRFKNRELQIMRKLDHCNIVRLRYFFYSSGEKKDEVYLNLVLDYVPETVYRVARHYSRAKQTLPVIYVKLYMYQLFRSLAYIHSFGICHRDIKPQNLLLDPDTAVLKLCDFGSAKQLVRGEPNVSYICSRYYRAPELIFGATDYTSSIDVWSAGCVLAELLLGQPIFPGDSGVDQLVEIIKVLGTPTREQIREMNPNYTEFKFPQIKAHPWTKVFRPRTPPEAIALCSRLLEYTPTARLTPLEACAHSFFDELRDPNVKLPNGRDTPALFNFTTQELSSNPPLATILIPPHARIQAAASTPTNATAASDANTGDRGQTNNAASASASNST

For `Cc1ncc(-c2nc(Nc3ccc(C(=O)c4ccccn4)cc3)ncc2F)n1C(C)C` [Example 2, (4-{[5-Fluoro-4-(1-isopropyl-2-methyl-1H-imidazol-5-yl)pyrimidin-2-yl]amino}phenyl)(pyridin-2-yl)methanone hydrochloride], the Ki (commonly the equilibrium dissociation constant of an inhibitor or competing ligand from its target) is 1.3 nM.
For `Cc1cc(S(=O)(=O)N2CCN(C)CC2)ccc1Nc1ncc(F)c(-c2cnc(C)n2C(C)C)n1` [Example 5, 5-Fluoro-4-(1-isopropyl-2-methyl-1H-imidazol-5-yl)-N-{2-methyl-4-[(4-methylpiperazin-1-yl)sulfonyl]phenyl}pyrimidin-2-amine hydrochloride] the value was 24 nM; for `COc1cc(Nc2ncc(F)c(-c3cnc(C)n3C(C)C)n2)ccc1C(=O)N1CCN(C)CC1` [Example 11, 5-Fluoro-4-(1-isopropyl-2-methyl-1H-imidazol-5-yl)-N-{3-methoxy-4-[(4-methylpiperazin-1-yl)carbonyl]phenyl}pyrimidin-2-amine hydrochloride], 25 nM; for `Cc1ncc(-c2nc(Nc3ccc(C(=O)N4CCN(C)CC4)cc3)ncc2F)n1C(C)C` [Example 13, 5-Fluoro-4-(1-isopropyl-2-methyl-1H-imidazol-5-yl)-N-{4-[(4-methylpiperazin-1-yl)carbonyl]phenyl}pyrimidin-2-amine hydrochloride], 3.8 nM.
